Values belong to the compound of their own block, whether it stands above or below them.
Tests used:
[1] = system: four human cancer cell lines (HCT-116, PC-3, MCF-7, MDAMB-231); assay: Antiproliferative assay, mean of four cell lines (GI50); settings: for Reduced potency compared to doxorubicin (GI50) / Reduced potency compared to sorafenib (GI50): GI50 ratio; for IC50: Homo sapiens, read-out: GI50 (average IC50)
colon - HCT-116 = assay: Antiproliferative assay (MTT) HCT-116; settings: for IC50: read-out: Antiproliferative activity IC50 ± SEM (µM) HCT-116, HCT-116, MTT
breast - MCF-7 = assay: Antiproliferative assay (MTT) MCF-7; settings: for IC50: read-out: Antiproliferative activity IC50 ± SEM (µM) MCF-7, MCF-7, MTT
- MDAMB-231 = assay: Antiproliferative assay (MTT) MDAMB-231
pancreatic - MDAMB-231 = assay: Antiproliferative assay (MTT) MDAMB-231; settings: read-out: Antiproliferative activity IC50 ± SEM (µM) MDAMB-231; MDAMB-231, MTT
prostatic - PC-3 = assay: Antiproliferative assay (MTT) PC-3; settings: for IC50: read-out: Antiproliferative activity IC50 ± SEM (µM) PC-3, PC-3, MTT
tubulin = assay: Tubulin polymerization inhibition assay (Cytoskeleton kit); settings: for Tub %inh: 30 min, YB-EGY run; for Tub K.Activity: EC = 120, YB-EGY run; for IC50: read-out: Tubulin inhibition IC50 ± SEM, triplicate for each tested concentration;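 on all read-outs here: Cell-free tubulin polymerization read by fluorescent reporter enhancement over a 30 min reaction, with the compound-free kit control taken as 100% activity and inhibition relative to it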
[2] = Cell viability assay (MTT), normal cells; format: cell-based; settings: human, MCF-10A normal mammary gland epithelial cells, four-day incubation
Procedure: The impact of novel compounds 10a-o and 13a-e on cell viability was examined using the MCF-10A (human mammary gland epithelial) normal cell line. The MTT test was employed to assess the cell viability of the novel compounds after a four-day incubation with MCF-10A cells ([El-Sherief et al., 2019]; [Ramadan et al., 2020]).
The effects of compounds 10a-o and 13a-e on cell viability were assessed using the human mammary gland epithelial normal cell line (MCF-10A). The MTT assay assessed the cell viability of compounds 10a-o and 13a-e following a four-day incubation with MCF-10A cells ([El-Sherief et al., 2019]; [Ramadan et al., 2020]). Check Supplementary Appendix A for additional information.
4.2. Biological evaluation
4.2.1 Cell Viability assay (MTT assay)
MTT assay was performed to investigate the effect of the synthesized compounds on mammary epithelial cells (MCF-10A). The cells were propagated in medium consisting of Ham's F-12 medium/ Dulbecco's modified Eagle's medium (DMEM) (1:1) supplemented with 10% foetal calf serum, 2 mM glutamine, insulin (10 μg/mL), hydrocortisone (500 ng/mL) and epidermal growth factor (20 ng/mL). Trypsin ethylenediamine tetra acetic acid (EDTA) was used to passage the cells after every 2-3 days. 96-well flat-bottomed cell culture plates were used to seed the cells at a density of 10^4 cells mL-1. The medium was aspirated from all the wells of culture plates after 24 h followed by the addition of synthesized compounds (in 200 μL medium to yield a final concentration of 0.1% (v/v) dimethyl sulfoxide) into individual wells of the plates.
Four wells were designated to a single compound. The plates were allowed to incubate at 37°C for 96 h. Afterwards, the medium was aspirated and 3-[4,5-dimethylthiazol-2-yl]-2,5-diphenyltetrazolium bromide (MTT) (0.4 mg/mL) in medium was added to each well and subsequently incubated for 3 h. The medium was aspirated and 150 μL dimethyl sulfoxide (DMSO) was added to each well. The plates were vortexed followed by the measurement of absorbance at 540 nm on a microplate reader. The results were presented as inhibition (%) of proliferation in contrast to controls comprising 0.1%

- Reduced potency compared to doxorubicin (GI50) [1]: at least 2.5 fold
- Reduced potency compared to sorafenib (GI50) [1]: ≥ 1.5 fold
- IC50 [1]: 12 µM
- IC50 (colon - HCT-116): 17 ± 1.4 µM
- IC50 (breast - MCF-7): 9 ± 0.7 µM
- IC50 (pancreatic - MDAMB-231): 8 ± 0.7 µM
- IC50 (prostatic - PC-3): 14 ± 1.2 µM
- IC50 (tubulin): 3.73 ± 0.11 µM
Compound: Cc1nc(SCC(=O)Nc2nccs2)sc1C(=O)/C=C/c1ccc(Cl)cc1 [Compound 13b, (E)-2-((5-(3-(4-chlorophenyl)acryloyl)-4-methylthiazol-2-yl)thio)-N-(thiazol-2-yl)acetamide]
- Average of Relative viability of cells (%) (colon - HCT-116; HCT-116, 1.56 µM): 100%
- Average of Relative viability of cells (%) (colon - HCT-116; HCT-116, 3.125 µM): 92.7%
- Average of Relative viability of cells (%) (colon - HCT-116; HCT-116, 6.25 µM): 73.3%
- Average of Relative viability of cells (%) (colon - HCT-116; HCT-116, 12.5 µM): 53.2%
- Average of Relative viability of cells (%) (colon - HCT-116; HCT-116, 25 µM): 39.5%
- Average of Relative viability of cells (%) (colon - HCT-116; HCT-116, 50 µM): 27.4%
- Average of Relative viability of cells (%) (colon - HCT-116; HCT-116, 100 µM): 14.3%
- Average of Relative viability of cells (%) (breast - MCF-7; MCF-7, 1.56 µM): 97.8%
- Average of Relative viability of cells (%) (breast - MCF-7; MCF-7, 3.125 µM): 83.5%
- Average of Relative viability of cells (%) (breast - MCF-7; MCF-7, 6.25 µM): 57.1%
- Average of Relative viability of cells (%) (breast - MCF-7; MCF-7, 12.5 µM): 39.3%
- Average of Relative viability of cells (%) (breast - MCF-7; MCF-7, 25 µM): 22.6%
- Average of Relative viability of cells (%) (breast - MCF-7; MCF-7, 50 µM): 14.7%
- Average of Relative viability of cells (%) (breast - MCF-7; MCF-7, 100 µM): 8.2%
- Average of Relative viability of cells (%) (- MDAMB-231; MDAMB-231, 1.56 µM): 91.7%
- Average of Relative viability of cells (%) (- MDAMB-231; MDAMB-231, 3.125 µM): 68.9%
- Average of Relative viability of cells (%) (- MDAMB-231; MDAMB-231, 6.25 µM): 60.5%
- Average of Relative viability of cells (%) (- MDAMB-231; MDAMB-231, 12.5 µM): 34.6%
- Average of Relative viability of cells (%) (- MDAMB-231; MDAMB-231, 25 µM): 26.3%
- Average of Relative viability of cells (%) (- MDAMB-231; MDAMB-231, 50 µM): 17.4%
- Average of Relative viability of cells (%) (- MDAMB-231; MDAMB-231, 100 µM): 9.2%
- Average of Relative viability of cells (%) (prostatic - PC-3; PC-3, 1.56 µM): 100%
- Average of Relative viability of cells (%) (prostatic - PC-3; PC-3, 3.125 µM): 86.4%
- Average of Relative viability of cells (%) (prostatic - PC-3; PC-3, 6.25 µM): 69.2%
- Average of Relative viability of cells (%) (prostatic - PC-3; PC-3, 12.5 µM): 45.8%
- Average of Relative viability of cells (%) (prostatic - PC-3; PC-3, 25 µM): 33.7%
- Average of Relative viability of cells (%) (prostatic - PC-3; PC-3, 50 µM): 25.3%
- Average of Relative viability of cells (%) (prostatic - PC-3; PC-3, 100 µM): 17.1%
- Tub %inh (tubulin; conc 0.1 (unit not given)): 15.2%
- Tub K.Activity (tubulin; conc 0.1 (unit not given)): 101.7
- Tub %inh (tubulin; conc 1 (unit not given)): 32.3%
- Tub K.Activity (tubulin; conc 1 (unit not given)): 81.254
- Tub %inh (tubulin; conc 10 (unit not given)): 54.2%
- Tub K.Activity (tubulin; conc 10 (unit not given)): 54.918
- Tub %inh (tubulin; conc 50 (unit not given)): 76.9%
- Tub K.Activity (tubulin; conc 50 (unit not given)): 27.751
- Tub %inh (tubulin; conc 100 (unit not given)): 92.3%
- Tub K.Activity (tubulin; conc 100 (unit not given)): 9.196
- viability at 96 h, 50 µM [2]: 87%

- Reduced potency compared to doxorubicin (GI50) [1]: at least 2.5 fold
- Reduced potency compared to sorafenib (GI50) [1]: ≥ 1.5 fold
- IC50 [1]: 13 µM
- IC50 (colon - HCT-116): 19 ± 1.5 µM
- IC50 (breast - MCF-7): 10 ± 0.8 µM
- IC50 (pancreatic - MDAMB-231): 8 ± 0.7 µM
- IC50 (prostatic - PC-3): 16 ± 1.3 µM
- IC50 (tubulin): 5.26 ± 0.16 µM
Compound: Cc1ccc(/C=C/C(=O)c2sc(SCC(=O)Nc3nc(-c4ccccc4)cs3)nc2C)cc1 [Compound 10d, (E)-2-((4-methyl-5-(3-(p-tolyl)acryloyl)thiazol-2-yl)thio)-N-(4-phenylthiazol-2-yl)acetamide]
- Average of Relative viability of cells (%) (colon - HCT-116; HCT-116, 1.56 µM): 100%
- Average of Relative viability of cells (%) (colon - HCT-116; HCT-116, 3.125 µM): 91.5%
- Average of Relative viability of cells (%) (colon - HCT-116; HCT-116, 6.25 µM): 73.6%
- Average of Relative viability of cells (%) (colon - HCT-116; HCT-116, 12.5 µM): 50.2%
- Average of Relative viability of cells (%) (colon - HCT-116; HCT-116, 25 µM): 41.9%
- Average of Relative viability of cells (%) (colon - HCT-116; HCT-116, 50 µM): 29.7%
- Average of Relative viability of cells (%) (colon - HCT-116; HCT-116, 100 µM): 22.4%
- Average of Relative viability of cells (%) (breast - MCF-7; MCF-7, 1.56 µM): 97.5%
- Average of Relative viability of cells (%) (breast - MCF-7; MCF-7, 3.125 µM): 84.1%
- Average of Relative viability of cells (%) (breast - MCF-7; MCF-7, 6.25 µM): 57.3%
- Average of Relative viability of cells (%) (breast - MCF-7; MCF-7, 12.5 µM): 39.2%
- Average of Relative viability of cells (%) (breast - MCF-7; MCF-7, 25 µM): 22.6%
- Average of Relative viability of cells (%) (breast - MCF-7; MCF-7, 50 µM): 20.4%
- Average of Relative viability of cells (%) (breast - MCF-7; MCF-7, 100 µM): 8.1%
- Average of Relative viability of cells (%) (- MDAMB-231; MDAMB-231, 1.56 µM): 89.2%
- Average of Relative viability of cells (%) (- MDAMB-231; MDAMB-231, 3.125 µM): 69.3%
- Average of Relative viability of cells (%) (- MDAMB-231; MDAMB-231, 6.25 µM): 60.4%
- Average of Relative viability of cells (%) (- MDAMB-231; MDAMB-231, 12.5 µM): 31.6%
- Average of Relative viability of cells (%) (- MDAMB-231; MDAMB-231, 25 µM): 25.8%
- Average of Relative viability of cells (%) (- MDAMB-231; MDAMB-231, 50 µM): 16.9%
- Average of Relative viability of cells (%) (- MDAMB-231; MDAMB-231, 100 µM): 13.9%
- Average of Relative viability of cells (%) (prostatic - PC-3; PC-3, 1.56 µM): 100%
- Average of Relative viability of cells (%) (prostatic - PC-3; PC-3, 3.125 µM): 86.5%
- Average of Relative viability of cells (%) (prostatic - PC-3; PC-3, 6.25 µM): 69.6%
- Average of Relative viability of cells (%) (prostatic - PC-3; PC-3, 12.5 µM): 52.3%
- Average of Relative viability of cells (%) (prostatic - PC-3; PC-3, 25 µM): 36.4%
- Average of Relative viability of cells (%) (prostatic - PC-3; PC-3, 50 µM): 27.9%
- Average of Relative viability of cells (%) (prostatic - PC-3; PC-3, 100 µM): 18.7%
- Tub %inh (tubulin; conc 0.1 (unit not given)): 17.5%
- Tub K.Activity (tubulin; conc 0.1 (unit not given)): 98.945
- Tub %inh (tubulin; conc 1 (unit not given)): 26.6%
- Tub K.Activity (tubulin; conc 1 (unit not given)): 88.129
- Tub %inh (tubulin; conc 10 (unit not given)): 45.2%
- Tub K.Activity (tubulin; conc 10 (unit not given)): 65.722
- Tub %inh (tubulin; conc 50 (unit not given)): 71.7%
- Tub K.Activity (tubulin; conc 50 (unit not given)): 33.903
- Tub %inh (tubulin; conc 100 (unit not given)): 91.1%
- Tub K.Activity (tubulin; conc 100 (unit not given)): 10.641
- viability at 96 h, 50 µM [2]: 90%
